# From US20080161340A1, “Tetrahydroquinilinones, tetrahydronaphthyridones and derivatives thereof” (priority 2006, published 2008)
# How the values were obtained:
# Type in all cases: cell-based
# [1] = target: T1, hCB2 (Homo sapiens, UniProt P34972); test: cAMP assay (LANCE TR-FRET) in CHO-K1 cells stably expressing hCB2, agonist/inverse agonist; details: intracellular cAMP, CHO-K1 hCB2 cells prestimulated with NKH-477; + agonist, − inverse agonist
# T1 construct: host or cells: CHO-K1
# Method: (§1) The ability of compounds to act as agonists or inverse agonists at human CB2 and CB1 receptors (hCB2, hCB1, respectively) was determined by measuring changes in intracellular cAMP levels. Chinese Hamster Ovary (CHO-K1) cell lines stably expressing hCB2 (Genebank: X74328) or hCB1 (Genebank: X54937) were purchased from Euroscreen (Gosselies, Belgium).
# (§2) Cell lines were grown in suspension in EX-CELL 302 CHO Serum-free medium (Sigma, cat #14324C) supplemented with 1% Fetal Bovine Serum, glutamine and non-essential amino-acids under 0.4 mg/mL G418 selection.
# (§3) Receptor mediated responses were determined by measuring changes in intracellular cAMP using LANCE cAMP detection kit (cat #AD0264, PerkinElmer, Wellesley, Mass.) based on time-resolved fluorescence resonance energy transfer (TR-FRET). Changes in cAMP were determined in cells pre-incubated with IBMX (isobutyl methylxanthine) and prestimulated with NKH-477 (a water soluble forskolin derivative, cat #1603, Tocris, Ellisville, Mo.) to increase basal cAMP levels as detailed below.
# (§4) On the day of the experiment, cells were spun at low speed for 5 min at room temperature. The supernatant was removed and cells were resuspended in stimulation buffer (Hanks Buffered Salt Solution/5 mM HEPES, containing 0.5 mM IBMX (cat #17018, Sigma) and 0.02% BSA (PerkinElmer, cat #CR84-100)). Cell clumps were removed by filtering through cell strainer 40 μm (BD Falcon, Discovery Labware, Bedford, Mass.) and diluted to 2×10^5 cells/mL. Antibody supplied with the LANCE cAMP immunoassay kit was then added according to the manufacturer's instructions. An aliquot of cells was taken for un-induced controls. To the remaining cells was added NKH-477 (a water soluble forskolin derivative, Tocris cat #1603) to a final concentration of 2-8 μM. Cells were then incubated for 30 min at room temperature prior to adding to Proxiplates containing test compounds (final DMSO concentration was less than 0.5%) with a Multidrop bulk dispenser, followed by a sixty minute incubation at room temperature. The response was stopped by addition of the detection mix supplied with the LANCE kit.
# (§5) The reagents were allowed to equilibrate for three hours prior to reading on an Envision multi-mode detector (PerkinElmer). TR-FRET was measured using a 330-380 nm excitation filter, a 665 nm emission filter, dichroic mirror 380 nm and Z=1 mm.
# (§6) Cyclic AMP concentrations in each well were back-calculated from a cAMP standard curve run concurrently during each assay. Each plate contained 16 wells of forskolin stimulated cells and 16 wells of forskolin plus CP55,940-treated. CP55,940-treated cells were treated with CP55,940 (Tocris cat. # 0949) at 1 μm and the maximal response was used as the full range (100%) standard. WIN55,212 (Tocris cat. # 1038) was used as an internal standard. Concentrations of cAMP were expressed as a percent of the difference of these two groups of wells. Concentration-response data including ECso (the concentration of compound producing 50% of the maximal response) and intrinsic activity (the percent maximal activation compared to full activation by CP55,940) were determined using a four-parameter non-linear regression algorithm (Xlfit equation 251, IDBS).
# [2] = target: T2, rCB2 (Rattus norvegicus, UniProt Q9QZN9); test: cAMP assay, rCB2 in Table 7, agonist/inverse agonist; details: intracellular cAMP; + agonist, − inverse agonist
# T2 sequence (Q9QZN9 1-360): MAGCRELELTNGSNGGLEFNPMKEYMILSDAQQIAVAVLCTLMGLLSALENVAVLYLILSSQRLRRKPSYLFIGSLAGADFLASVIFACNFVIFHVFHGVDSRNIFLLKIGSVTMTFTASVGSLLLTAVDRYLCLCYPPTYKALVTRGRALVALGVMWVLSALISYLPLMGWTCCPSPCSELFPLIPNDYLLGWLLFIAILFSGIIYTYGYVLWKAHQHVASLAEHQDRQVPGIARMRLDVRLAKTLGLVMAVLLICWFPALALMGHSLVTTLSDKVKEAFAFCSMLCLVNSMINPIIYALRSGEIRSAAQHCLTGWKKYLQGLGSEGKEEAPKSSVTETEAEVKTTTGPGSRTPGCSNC
# Method: as §3, §4, §5, §6
# [3] = target: T3, hCB1 (Homo sapiens, UniProt P21554); test: cAMP assay (LANCE TR-FRET) in CHO-K1 cells stably expressing hCB1, agonist/inverse agonist; details: intracellular cAMP, CHO-K1 hCB1 cells prestimulated with NKH-477, + agonist, − inverse agonist; for EC50: read-out: hCB1 EC50 class
# T3 construct: host or cells: CHO-K1
# T3 sequence (P21554 whole entry): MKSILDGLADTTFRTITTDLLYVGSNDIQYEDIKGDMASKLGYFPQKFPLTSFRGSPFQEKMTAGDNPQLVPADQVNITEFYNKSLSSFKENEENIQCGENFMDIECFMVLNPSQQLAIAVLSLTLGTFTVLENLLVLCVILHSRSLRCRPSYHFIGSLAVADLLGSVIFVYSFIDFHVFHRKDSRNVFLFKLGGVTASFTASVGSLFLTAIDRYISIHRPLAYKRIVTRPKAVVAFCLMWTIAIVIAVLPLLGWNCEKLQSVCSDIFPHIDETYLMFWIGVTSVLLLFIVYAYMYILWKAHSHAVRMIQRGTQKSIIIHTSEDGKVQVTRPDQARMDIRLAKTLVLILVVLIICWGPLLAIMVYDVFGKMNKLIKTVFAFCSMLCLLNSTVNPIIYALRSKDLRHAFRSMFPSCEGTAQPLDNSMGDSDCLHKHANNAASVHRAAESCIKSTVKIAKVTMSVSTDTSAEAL
# Method: as §1, §2, §3, §4, §5, §6
# T1 sequence (P34972 whole entry): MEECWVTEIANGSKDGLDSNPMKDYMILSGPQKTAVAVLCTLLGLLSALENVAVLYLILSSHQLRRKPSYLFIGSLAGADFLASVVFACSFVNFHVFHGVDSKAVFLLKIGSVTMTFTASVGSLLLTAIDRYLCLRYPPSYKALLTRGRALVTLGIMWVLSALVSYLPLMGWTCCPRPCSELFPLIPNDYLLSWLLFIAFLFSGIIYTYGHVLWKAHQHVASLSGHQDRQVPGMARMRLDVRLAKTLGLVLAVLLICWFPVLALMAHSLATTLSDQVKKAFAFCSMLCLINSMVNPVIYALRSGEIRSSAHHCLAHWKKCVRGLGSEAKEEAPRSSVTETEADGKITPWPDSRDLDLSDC
SMILES,hCB2 EC50 class [1],rCB2 EC50 class [2],EC50 [3],hCB1 EC50 class [3]
"O=c1c(-c2ccccc2)cc2c(n1CC1CCC1)CCCC2 [Compound 1, 1-(cyclobutylmethyl)-3-phenyl-5,6,7,8-tetrahydroquinolin-2(1H)-one]",+B,+A,> 10 µM,
"O=c1c(-c2ccccc2)cc2c(n1CC1CC1)CCCC2 [Compound 2, 1-(cyclopropylmethyl)-3-phenyl-5,6,7,8-tetrahydroquinolin-2(1H)-one]",+B,+C,> 10 µM,
"O=c1c(-c2cccc(F)c2)cc2c(n1CC1CC1)CCCC2 [Compound 4, 1-(cyclopropylmethyl)-3-(3-fluorophenyl)-5,6,7,8-tetrahydroquinolin-2(1H)-one]",,+C,,+C
"O=c1c(-c2cc3c(n(CC4CCC4)c2=O)CCCC3)cc2c(n1CC1CCC1)CCCC2 [Compound 5, 1,1′-bis(cyclobutylmethyl)-5,5′,6,6′,7,7′,8,8′-octahydro-3,3′-biquinoline-2,2′(1H,1′H)-dione]",+A,+A,,+C
"O=c1c(-c2cccc(C(F)(F)F)c2)cc2c(n1CC1CCC1)CCCC2 [Compound 6, 1-(cyclobutylmethyl)-3-(3-(trifluoromethyl)phenyl)-5,6,7,8-tetrahydroquinolin-2(1H)-one]",+A,+A,> 10 µM,
"O=c1c(-c2ccc(C(F)(F)F)cc2)cc2c(n1CC1CCC1)CCCC2 [Compound 7, 1-(cyclobutylmethyl)-3-(4-(trifluoromethyl)phenyl)-5,6,7,8-tetrahydroquinolin-2(1H)-one]",+A,+A,> 10 µM,
"O=c1c(-c2cccc(Cl)c2)cc2c(n1CC1CCC1)CCCC2 [Compound 8, 3-(3-chlorophenyl)-1-(cyclobutylmethyl)-5,6,7,8-tetrahydroquinolin-2(1H)-one]",+A,+A,> 10 µM,
"O=c1c(-c2cccs2)cc2c(n1CC1CCC1)CCCC2 [Compound 9, 1-(cyclobutylmethyl)-3-(thiophen-2-yl)-5,6,7,8-tetrahydroquinolin-2(1H)-one]",+B,+C,> 10 µM,
"O=c1c(-c2cccnc2)cc2c(n1CC1CCC1)CCCC2 [Compound 10, 1-(cyclobutylmethyl)-3-(pyridin-3-yl)-5,6,7,8-tetrahydroquinolin-2(1H)-one]",+B,+B,> 10 µM,
"O=c1c(-c2ccoc2)cc2c(n1CC1CCC1)CCCC2 [Compound 12, 1-(cyclobutylmethyl)-3-(furan-3-yl)-5,6,7,8-tetrahydroquinolin-2(1H)-one]",+C,+B,> 10 µM,
"COc1ccncc1-c1cc2c(n(CC3CCC3)c1=O)CCCC2 [Compound 13, 1-(cyclobutylmethyl)-3-(4-methoxypyridin-3-yl)-5,6,7,8-tetrahydroquinolin-2(1H)-one]",+B,,,
"O=c1c(-c2ccccc2F)cc2c(n1CC1CCC1)CCCC2 [Compound 15, 1-(cyclobutylmethyl)-3-(2-fluorophenyl)-5,6,7,8-tetrahydroquinolin-2(1H)-one]",+B,+B,> 10 µM,
"O=c1c(C2=NN(c3ccccc3)C(c3ccco3)C2)cc2c(n1CC1CCC1)CCCC2 (stereo not drawn) [Compound 21, 1-(cyclobutylmethyl)-3-(5-(furan-2-yl)-1-phenyl-4,5-dihydro-1H-pyrazol-3-yl)-5,6,7,8-tetrahydroquinolin-2(1H)-one]",+C,,,
"O=c1c(-c2cccc(C(F)(F)F)c2)cc2c(n1CC1CCCCC1)CCCC2 [Compound 24, 1-(cyclohexylmethyl)-3-(3-(trifluoromethyl)phenyl)-5,6,7,8-tetrahydroquinolin-2(1H)-one]",+A,,,+B
"Cc1noc(C)c1-c1cc2c(n(CC3CCC3)c1=O)CCCC2 [Compound 27, 1-(cyclobutylmethyl)-3-(3,5-dimethylisoxazol-4-yl)-5,6,7,8-tetrahydroquinolin-2(1H)-one]",+B,,,
"O=c1c(-c2cn[nH]c2)cc2c(n1CC1CCC1)CCCC2 [Compound 28, 1-(cyclobutylmethyl)-3-(1H-pyrazol-4-yl)-5,6,7,8-tetrahydroquinolin-2(1H)-one]",,−C,> 10 µM,
"CC(C)(C)OC(=O)N1CCc2c(cc(-c3cccc(Cl)c3)c(=O)n2CC2CCC2)C1 [Compound 35, tert-butyl 3-(3-chlorophenyl)-1-(cyclobutylmethyl)-2-oxo-1,2,7,8-tetrahydro-1,6-naphthyridine-6(5H)-carboxylate]",,−B,> 10 µM,
"CC(C)(C)OC(=O)N1CCc2c(cc(-c3ccc(C(F)(F)F)cc3)c(=O)n2CC2CCC2)C1 [Compound 36, tert-butyl 3-(4-(trifluoromethyl)phenyl)-1-(cyclobutylmethyl)-2-oxo-1,2,7,8-tetrahydro-1,6-naphthyridine-6(5H)-carboxylate]",,−C,,
"CC(C)(C)OC(=O)N1CCc2c(cc(-c3cccnc3)c(=O)n2CC2CCC2)C1 [Compound 37, tert-butyl 1-(cyclobutylmethyl)-2-oxo-3-(pyridin-3-yl)-1,2,7,8-tetrahydro-1,6-naphthyridine-6(5H)-carboxylate]",,−C,,
"O=C(c1ccno1)N1CCc2c(cc(-c3ccc(C(F)(F)F)cc3)c(=O)n2CC2CCC2)C1 [Compound 45, 1-(cyclobutylmethyl)-6-(isoxazole-5-carbonyl)-3-(4-(trifluoromethyl)phenyl)-5,6,7,8-tetrahydro-1,6-naphthyridin-2(1H)-one]",,−C,> 10 µM,
"CC(C)C(=O)N1CCc2c(cc(-c3cccc(Cl)c3)c(=O)n2CC2CC2)C1 [Compound 51, 3-(3-chlorophenyl)-1-(cyclopropylmethyl)-6-isobutyryl-5,6,7,8-tetrahydro-1,6-naphthyridin-2(1H)-one]",+B,,,
"COc1cccc(-c2cc3c(n(CC4CCC4)c2=O)CCN(C(C)=O)C3)c1 [Compound 55, 6-acetyl-1-(cyclobutylmethyl)-3-(3-methoxyphenyl)-5,6,7,8-tetrahydro-1,6-naphthyridin-2(1H)-one]",,−C,,−B
"O=c1c(-c2ccc(C(F)(F)F)cc2)cc2c(n1CC1CCC1)CCN(S(=O)(=O)c1ccccc1)C2 [Compound 56, 1-(cyclobutylmethyl)-6-(phenylsulfonyl)-3-(4-(trifluoromethyl)phenyl)-5,6,7,8-tetrahydro-1,6-naphthyridin-2(1H)-one]",,−C,,−B
"O=c1c(-c2ccc(C(F)(F)F)cc2)cc2c(n1CC1CCC1)CCN(S(=O)(=O)c1cccc(F)c1)C2 [Compound 57, 1-(cyclobutylmethyl)-6-(3-fluorophenylsulfonyl)-3-(4-(trifluoromethyl)phenyl)-5,6,7,8-tetrahydro-1,6-naphthyridin-2(1H)-one]",,−B,,
